# Assay results published in the supplement of paper PMC10307832.
# Key:
# Test in all cases: relative viability (nuclei count vs DMSO), 5 days (fraction); higher = more cells survive
# NCI-H2023 = test system: NCI-H2023
# How it was run: (§1)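 Lung cancer cell lines, seeded in 1536-well plates, were treated the following day by pin tool with a single drug or with five library-drug doses (not always all listed) in √10 steps on top of a fixed anchor-drug dose. Cells were fixed and nuclei stained in one step after 5 days, and nuclei were counted. Relative viability is the nuclei count for treated wells divided by that for vehicle wells, reported as medians of duplicate plates.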
# NCI-H2342 = test system: NCI-H2342
# How it was run: as §1
# NCI-H2347 = test system: NCI-H2347
# How it was run: as §1
# NCI-H322M = test system: NCI-H322M
# How it was run: as §1
# NCI-H358 = test system: NCI-H358
# How it was run: as §1
# NCI-H441 = test system: NCI-H441
# How it was run: as §1
# NCI-H522 = test system: NCI-H522
# How it was run: as §1
# NCI-H647 = test system: NCI-H647
# How it was run: as §1
# NCI-H838 = test system: NCI-H838
# How it was run: as §1
# RERF-LC-KJ = test system: RERF-LC-KJ
# How it was run: as §1
# SW 1573 = test system: SW 1573
# How it was run: as §1
# UMC-11 = test system: UMC-11
# How it was run: as §1
smiles,measurement,setting,value
Cc1cn(-c2cc(NC(=O)c3ccc(C)c(Nc4nccc(-c5cccnc5)n4)c3)cc(C(F)(F)F)c2)cn1 [Nilotinib] + CCNC(=O)c1noc(-c2cc(C(C)C)c(O)cc2O)c1-c1ccc(CN2CCOCC2)cc1 [Luminespib] (partner 0.01 µM),relative viability,NCI-H2023; first compound 0.03162 µM,1.07
same,relative viability,NCI-H2023; first compound 0.1 µM,0.38
same,relative viability,NCI-H2342; first compound 0.001 µM,0.595
same,relative viability,NCI-H2342; first compound 0.003162 µM,0.675
same,relative viability,NCI-H2342; first compound 0.01 µM,0.698
same,relative viability,NCI-H2342; first compound 0.03162 µM,0.586
same,relative viability,NCI-H2342; first compound 0.1 µM,0.673
same,relative viability,NCI-H2347; first compound 0.001 µM,0.344
same,relative viability,NCI-H2347; first compound 0.003162 µM,0.263
same,relative viability,NCI-H2347; first compound 0.01 µM,0.712
same,relative viability,NCI-H2347; first compound 0.03162 µM,0.589
same,relative viability,NCI-H2347; first compound 0.1 µM,0.598
same,relative viability,NCI-H322M; first compound 0.001 µM,1.08
same,relative viability,NCI-H322M; first compound 0.003162 µM,0.481
same,relative viability,NCI-H322M; first compound 0.01 µM,1.08
same,relative viability,NCI-H322M; first compound 0.03162 µM,0.797
same,relative viability,NCI-H322M; first compound 0.1 µM,1.02
same,relative viability,NCI-H358; first compound 0.001 µM,0.286
same,relative viability,NCI-H358; first compound 0.003162 µM,0.311
same,relative viability,NCI-H358; first compound 0.01 µM,0.43
same,relative viability,NCI-H358; first compound 0.03162 µM,0.188
same,relative viability,NCI-H441; first compound 0.001 µM,0.33
same,relative viability,NCI-H441; first compound 0.003162 µM,0.375
same,relative viability,NCI-H441; first compound 0.01 µM,0.322
same,relative viability,NCI-H441; first compound 0.03162 µM,0.413
same,relative viability,NCI-H441; first compound 0.1 µM,0.304
same,relative viability,NCI-H522; first compound 0.001 µM,1.11
same,relative viability,NCI-H522; first compound 0.003162 µM,1.13
same,relative viability,NCI-H522; first compound 0.01 µM,1.35
same,relative viability,NCI-H522; first compound 0.03162 µM,1.07
same,relative viability,NCI-H522; first compound 0.1 µM,1.15
same,relative viability,NCI-H647; first compound 0.001 µM,0.228
same,relative viability,NCI-H647; first compound 0.003162 µM,0.194
same,relative viability,NCI-H647; first compound 0.01 µM,0.194
same,relative viability,NCI-H647; first compound 0.03162 µM,0.129
same,relative viability,NCI-H647; first compound 0.1 µM,0.161
same,relative viability,NCI-H838; first compound 0.001 µM,0.24
same,relative viability,NCI-H838; first compound 0.003162 µM,0.276
same,relative viability,NCI-H838; first compound 0.01 µM,0.308
same,relative viability,NCI-H838; first compound 0.03162 µM,0.273
same,relative viability,NCI-H838; first compound 0.1 µM,0.208
same,relative viability,RERF-LC-KJ; first compound 0.001 µM,1.3
same,relative viability,RERF-LC-KJ; first compound 0.003162 µM,1.47
same,relative viability,RERF-LC-KJ; first compound 0.01 µM,1.34
same,relative viability,RERF-LC-KJ; first compound 0.03162 µM,0.946
same,relative viability,RERF-LC-KJ; first compound 0.1 µM,1.22
same,relative viability,SW 1573; first compound 0.001 µM,0.397
same,relative viability,SW 1573; first compound 0.003162 µM,0.711
same,relative viability,SW 1573; first compound 0.01 µM,0.277
same,relative viability,SW 1573; first compound 0.03162 µM,0.163
same,relative viability,SW 1573; first compound 0.1 µM,0.144
same,relative viability,UMC-11; first compound 0.001 µM,0.978
same,relative viability,UMC-11; first compound 0.003162 µM,1.22
same,relative viability,UMC-11; first compound 0.01 µM,1.26
same,relative viability,UMC-11; first compound 0.1 µM,1.39
